Where two headings read alike, the source gives them in different places.
Tests used:
[1] = tested on: mechanical allodynia in rats; assay: Mechanical allodynia in vivo assay (spinal nerve ligation); parameters: species or system rat; conditions: for ED50: Rattus norvegicus, sc; for analgesia against mechanical allodynia: oral administration
Description: This assay determines the effectiveness of compounds in relieving one of the symptoms of neuropathic pain produced by spinal nerve ligation, namely mechanical allodynia. The surgical procedure was performed essentially as described by Kim and Chung, Pain, (1992) 50:355-363. Briefly, the rats were anesthetized with an intraperitoneal dose of pentobarbital sodium (65 mg/kg) with additional doses of anesthetic given as needed. Each animal was then placed in a prone position, a 3 cm lateral incision was made, and the left paraspinal muscles separated from the spinous process at the L4 -S2 level. The L6 transverse process was then removed in order to visually identify the L4 -L6 spinal nerves. The L5 and L6 spinal nerves were then individually isolated and tightly ligated with silk thread. The wound was then closed in layers by silk sutures. Seven to 28 days post-surgery, a calibrated series of eight von Frey filaments were used to assess mechanical allodynia. Animals were housed individually in plexiglass cages with a wire mesh floor. Filaments of increasing stiffness were applied perpendicular to the midplantar surface in the sciatic nerve distribution areas of the left hindpaw and were slowly depressed (4-6 seconds) until bending occurred. The filament application order and number of trials were determined by the up-down method of Dixon (Chaplan, et al., J. Neurosci. Methods, (1994) 53:55-63). Flinching and licking of the paw and paw withdrawal on the ligated side were all considered positive responses. The 50% paw withdrawal threshold (g) was then calculated and compared to control. The doses for the acute and chronic studies were selected on the basis of prior assessment of the acute effects on the test compounds on the gross behavior in normal rats. Briefly, the rats were weighed and grouped into cages, dosed with the test compound, and observed continuously for changes in behavior. […] Pinna and corneal reflexes were tested by using a piece of natural hair from a brush that is attached to a glass rod. The righting reflexes were tested by placing the rat flat on its back, and recording the time it takes for the animal to right itself onto all four legs. The posture and gait were assessed by placing the rat on the floor.

[2] = Adverse effects / gross behavior on dosing; format: in vivo, rat; conditions: for doses with adverse side effects / behavioral problems / adverse side effects observed: cold allodynia acute study; for adverse side effects observed: doses higher than 60 mg/kg
Description: The doses for the acute and chronic studies were selected on the basis of prior assessment of the acute effects on the test compounds on the gross behavior in normal rats. Briefly, the rats were weighed and grouped into cages, dosed with the test compound, and observed continuously for changes in behavior. […] Pinna and corneal reflexes were tested by using a piece of natural hair from a brush that is attached to a glass rod. The righting reflexes were tested by placing the rat flat on its back, and recording the time it takes for the animal to right itself onto all four legs. The posture and gait were assessed by placing the rat on the floor.
The selection of doses was similar to that of Example 12C.

[3] = tested on: cold allodynia in rats; assay: Cold allodynia in vivo assay (chronic constriction injury), acute studies; parameters: species or system rat; conditions: cold allodynia, subcutaneous, acute; for ED50: Rattus norvegicus, sc; for potency (ED50) comparison of (R)-isomers: in words
Description: (§1) This assay determines the effectiveness of compounds in relieving one of the symptoms of neuropathic pain produced by unilateral mononeuropathy, namely cold allodynia. Unilateral mononeuropathy was produced in rats using the Chronic Constriction Injury model performed essentially as described by Bennet and Xie, Pain, (1988) 33:87-107. Briefly, the rats were anesthetized with an intraperitoneal dose of pentobarbital sodium (65 mg/kg) with additional doses of anesthetic given as needed. The lateral aspect of each rat's hind limb was shaved and scrubbed with Novasan. Using aseptic technique, an incision was made on the lateral aspect of the hind limb at the mid-thigh level. The biceps femoris was bluntly dissected to expose the sciatic nerve. On the right hind limb of each rat, four loosely tied ligatures were made around the sciatic nerve approximately 1-2 millimeters apart. On the left side of each rat, an identical dissection was performed except that the sciatic nerve was not ligated. The muscle was closed with a continuous suture pattern, and the skin was closed with wound clips. Each rat was placed individually into a plexiglass chamber with a metal plate 6 cm from the bottom. This chamber was filled with ice water to a depth of 2.5 cm above the metal plate, with the temperature of the bath maintained at 0° C. throughout the experiment. A timer was started, and the rat's response latency was measured to the nearest tenth of a second. A "response" was defined as a rapid withdrawal of the right ligated hindpaw completely out of the water while the animal was stationary and not pivoting. An exaggerated limp while the animal was walking was not scored as a response. Maximum immersion time was 20 seconds with a 20 minute interval between trials. The screening criteria were 1) the average of two trials was less than or equal to 13 seconds, and 2) there was consistency across the two trial scores. Animals were screened for hypersensitivity to cold on post-surgery days 4 through 10, and selected for inclusion in dose-response studies based on the criteria described above. The pre-dose screening values were used as the animal's baseline cold allodynia scores. For acute studies, the animals received either subcutaneous or oral injections and were tested for cold allodynia at 1, 3, and sometimes 5 hours post-dose. The selection of doses was similar to that of Example 12C.

[4] = tested on: voltage-gated sodium channels ([3H]BTX binding, rat cortex); assay: [3H]BTX binding assay, rat cortex membranes; conditions: rat brain cortex membranes
Description: The following assays characterize the interaction of the compounds of Formula I with ligand binding sites on voltage-gated sodium channels.
Frozen tissues were obtained from Pel-Freez Biologicals (Rogers, AR). Tissues were homogenized in 10 volumes of a Tris-sucrose buffer (10 mM Tris-HCl, 250 mM sucrose, pH 7.4 at 4° C.) using 10 strokes with a glass-glass, hand-held homogenizer. The homogenates were filtered through nylon mesh and then centrifuged at 1,000×g for 15 minutes. The pellets were resuspended in a Hepes buffer (50 mM Hepes, 130 mM choline chloride, 5 mM glucose, 5.4 mM KCl, pH 7.4 at 4° C.). The resuspended pellets were centrifuged at 1,000×g for 15 minutes, resuspended in a Hepes buffer (50 mM Hepes, 130 mM choline chloride, 5 mM glucose, 5.4 mM KCl, pH 7.4 at 25° C.) and, frozen at -70° C. until used in binding assays.
Nonspecific binding was defined in the presence of 1 mM veratridine. Unless otherwise specified, PbTx (0.1 μM) and LqTx (50 μg/ml) were included in the assays. Membranes were incubated for 60 minutes at 25° C. and then filtered using GF/B glass fiber filters that had been pretreated with 0.3% PEI. Filters were rinsed with 3×1 ml of ice cold 50 mM Tris-HCl (pH 7.4 at 4° C.) and the bound radioactivity was determined by scintillation counting (Packard Top-count).

[5] = tested on: neuropathic pain models; assay: Neuropathic pain models / standard assays (summary statements); format: in vivo; conditions: summary statement, (S)- vs (R)-enantiomer
[6] = tested on: cold allodynia in rats; assay: Cold allodynia in vivo assay (chronic constriction injury), chronic studies; parameters: species or system rat; conditions: oral, chronic; (R)-enantiomer 10 and 20 mg/kg, sub-threshold
Description: as §1, with “chronic” for “acute”, “animals received subcutaneous or oral injections twice daily for 4 days and once on day 5. The animals were tested for allodynia on day 1 at 1, 3 and 5 hours following the 8 am dose, and at 5 hours following the 8 am dose on days 3 and 5. Two days later, the animals were tested for cold allodynia to assess whether there was a wash-out of the drug being tested. Following this screening for cold allodynia, the animals in two of the three chronic studies” for “animals”, “of the drug” for “and were tested for cold allodynia”, “a dose previously shown” for “1, 3, and sometimes 5 hours post-dose. The selection of doses was similar”, “produce significant anti-allodynic effects acutely. […]” for “that of Example 12C.”

[7] = mechanical allodynia, subcutaneous
[8] = subcutaneous, mechanical allodynia study

CNC(C)COc1c(C)cccc1C (racemic) [Formula III racemate, [2-(2,6-dimethylphenoxy)-1-methylethyl]-methylamine]
ED50 [1, 7]: 31.3 mg/kg
EDmax [1, 7]: 67%
maximal analgesic activity (Emax) [1, 7]: 67%

CCN[C@@H](C)COc1c(C)cccc1C [Formula I (S)-, (S)-[2-(2,6-dimethylphenoxy)-1-methylethyl]-ethylamine]
analgesia against mechanical allodynia [1]: did not produce analgesia
doses with adverse side effects ([2]; oral administration, mechanical allodynia study): greater than 60 mg/kg
doses with adverse side effects / behavioral problems ([2]; subcutaneous): higher than 60 mg/kg
adverse side effects observed ([2]; subcutaneous): convulsions and immobility
ED50 ([3]; 1 hr, read-out: ED50 1 hr): 12.8 mg/kg
ED50 ([3]; 3 hr, read-out: ED50 3 hr): 10 mg/kg
Emax 1 hr ([3]; 1 hr): 100%
Emax 3 hr ([3]; 3 hr): 58%
potency of (R)- versus (S)-enantiomer in inhibiting [3H]BTX binding [4]: no difference in the potencies
deleterious side effects [5]: deleterious side effects are largely confined to the (S)-enantiomer

CCCN[C@H](C)COc1c(C)cccc1C [Formula IV (R)-, [2-(2,6-Dimethylphenoxy)-1-methylethyl]-propylamine, reference compound]
doses with adverse side effects / behavioral problems ([2]; subcutaneous): higher than 60 mg/kg
adverse side effects observed ([2]; subcutaneous): splayed limbs and abnormal righting reflexes
ED50 ([3]; 1 hr, read-out: ED50 1 hr): 28.4 mg/kg
ED50 ([3]; 3 hr, read-out: ED50 3 hr): 29.9 mg/kg
Emax 1 hr ([3]; 1 hr): 74%
Emax 3 hr ([3]; 3 hr): 74%
potency (ED50) comparison of (R)-isomers [3]: comparable potency

Cc1cccc(C)c1OCC(C)N (racemic) [Formula II racemate, 2-(2,6-Dimethylphenoxy)-1-methyl-ethylamine, reference compound]
EDmax [1, 7]: 29%
maximal analgesic activity (Emax) [1, 7]: 29%
analgesia against mechanical allodynia [1]: did not produce analgesia
ED50 ([3]; 1 hr, read-out: ED50 1 hr): 29.8 mg/kg
ED50 ([3]; 3 hr, read-out: ED50 3 hr): 33.6 mg/kg
Emax 1 hr ([3]; 1 hr): 73%
Emax 3 hr ([3]; 3 hr): 80%
anti-allodynic effect after chronic oral dosing [6]: no anti-allodynic effect

CN[C@H](C)COc1c(C)cccc1C [Formula III (R)-, [2-(2,6-dimethylphenoxy)-1-methylethyl]-methylamine, reference compound]
ED50 ([3]; 1 hr, read-out: ED50 1 hr): 26.1 mg/kg
ED50 ([3]; 3 hr, read-out: ED50 3 hr): 31.4 mg/kg
Emax 1 hr ([3]; 1 hr): 76%
Emax 3 hr ([3]; 3 hr): 74%
potency (ED50) comparison of (R)-isomers [3]: comparable potency

CCCNC(C)COc1c(C)cccc1C (racemic) [Formula IV racemate, [2-(2,6-Dimethylphenoxy)-1-methylethyl]-propylamine, reference compound]
ED50 [1, 7]: > 30 mg/kg
potency (ED50) comparison ([1]; mechanical allodynia, subcutaneous, in words): less potent than compound III
adverse events [2, 8]: adverse events
dose at which adverse events occur [2, 8]: 60 mg/kg
adverse events ([2]; subcutaneous, mechanical allodynia study, listed as Compound IV): convulsions and severe ataxia
